According to US20160083374A1, “AMORPHOUS FORM OF CANAGLIFLOZIN AND PROCESS FOR PREPARING THEREOF” (CADILA HEALTHCARE LIMITED, priority 2013, published 2016):

Experiments:
[1] = Solid-form stability under normal stability conditions; format: physicochemical; settings: amorphous canagliflozin obtained by removal of solvent per the invention
Description: The obtained amorphous canagliflozin is stable under normal stability conditions and substantially free from residual solvent. Therefore, there is no physical change observed from amorphous form to crystalline form during the stability.
In another general aspect, the stable amorphous form of canagliflozin, is stored under nitrogen atmosphere and packed in a double polythene bag tied with a thread, keeping primary packing containing amorphous canagliflozin or salts thereof inside a black color polyethylene bag containing oxygen busters and sealing it, placing above the double polyethylene bag inside a triple laminated bag optionally containing oxygen busters and sealing it, and placing the sealed triple laminated bag inside a closed high density polyethylene (HDPE) container and storing in controlled environment chamber at about 25° C. and/or 40° C.

[2] = cited from earlier work

stability of amorphous form (change from amorphous to crystalline form) [1]: stable
SMILES: Cc1ccc([C@@H]2O[C@H](CO)[C@@H](O)[C@H](O)[C@H]2O)cc1Cc1ccc(-c2ccc(F)cc2)s1 [amorphous canagliflozin]
physical change between sorption/desorption cycles ([2]; amorphous canagliflozin of US '487 A1, humidity increased from 70% to 90% RH): conversion or partial conversion from the amorphous state to a crystalline state
hygroscopicity by DVS ([2]; amorphous canagliflozin prepared by the process of US '487 A1 (toluene solution into n-heptane)): hygroscopic
